{
  "source": "patent US9066516B2",
  "about": "“Uses of thaxtomin and thaxtomin compositions as herbicides” (priority 2008, dated 2015)",
  "format_in_all_cases": "in vivo",
  "key": {"sprangletop": {"test_system": "sprangletop", "experiment": "Field study on rice, weed count (Example 6)", "settings": "Thaxtomin A 180 g/acre, per plot", "description": "(§1) The efficacy of thaxtomin A derived from a liquid culture of S. acidiscabies is tested in a field study on rice using 4.9 sq-ft plots surrounded by a metal ring. Treatments with either thaxtomin A or thaxtomin A in combination with lemongrass oil (formulated as GreenMatch EX) or cyhalofop (formulated as Clincher CA) were done using a hand-held sprayer with a water volume corresponding to 57 gallons per acre. Rice (variety M209) was grown until maturity and harvested by hand for yield and weed count assessment. Results of yield (kg/ha), and numbers of redstem, small-flower umbrella sedge, and sprangletop in each plot are presented in Table 3 below."}, "[1]": {"test_system": "small-flower umbrella sedge", "experiment": "Field study on rice, weed count (Example 6)", "settings": "Thaxtomin A 180 g/acre, per plot", "description": "as §1"}, "redstem": {"test_system": "redstem", "experiment": "Field study on rice, weed count (Example 6)", "settings": "Thaxtomin A 180 g/acre; per plot", "description": "as §1"}, "ragweed": {"test_system": "ragweed", "experiment": "Greenhouse synergy test MBI-005 + commercial herbicides (Example 11)", "settings": "14 days", "description": "The test species barnyard grass, ragweed, sedge, and broad-leaf mustard were used for the valuation of synergy between MBI-005 and the rice herbicides clomazone, penoxsulam, cyhalofop, fenoxaprop-p-ethyl, bispyribac-sodium, thiobencarb, and propanil.\n[…] other herbicides commonly used for field crops, glyphosate, glufosinate, synthetic version of bialaphos, and mesotrione were also tested for synergy with MBI-005 on crabgrass and ragweed.\nThere were 3 replicates per treatment which were sprayed with approximately ⅔ ml per replicate. The treatments were completely randomized and kept in a greenhouse at 25° C. The efficacy was rated at 7 and 14 days post treatment."}, "[2]": {"test_system": "sorghum (Sorghum bicolor)", "experiment": "Phytotoxicity on sorghum plants (Example 3)", "settings": "0.5 and 1.0 mg thaxtomin A/mL, three weeks after the treatment", "description": "To test the phytotoxicity of thaxtomin A on sorghum plants, five seeds of sorghum (Sorghum bicolor) are planted in each 4″×4″ plastic pot filled with soil. Plants were grown under optimal conditions in a greenhouse before and after treatment with solutions containing 0.5 and 1.0 mg thaxtomin A/mL. At the time of the treatment, the plants are about 3 inches tall. Each treatment is applied in three replicates, and a control treatment included plants treated with just the carrier (4% EtOH, 0.02% polysorbate 60 POE (20) sorbitan monostearate). Evaluations for phytotoxicity are performed at 7-day intervals starting one week after treatment."}, "[3]": {"test_system": "small flower umbrella sedge", "experiment": "Post-emergent MBI-005 + rice herbicides on smallflower umbrella sedge (Example 19)", "settings": "14 days", "description": "Twenty seedlings in 2.5 cm square pots containing plant growth mix were sprayed to full coverage using a hand sprayer. Negative controls were sprayed with water. Pots were randomly placed in a growth room at 25° C. and 50% RH, and watered as necessary. Treatments were replicated three times and evaluated at 7 and 14 days for visual % damage, with 0% indicating no damage and 100% indicating plant death.\nSynergy was calculated as the ratio of observed (E) to expected (E/Ee) percent control using Colby's formula."}, "[4]": {"test_system": "corn (Zea mays var. Early Sunglow)", "experiment": "Pot study, phytotoxicity on corn (Example 2)", "settings": "0.5 and 1.0 mg/mL, 7, 14 and 21 days after treatment", "description": "(§2) A pot study is conducted to test the phytotoxicity of thaxtomin A on corn (Zea mays var. Early Sunglow) and wheat (Triticum aestivum var. PR1404). To confirm the activity on broadleaf weeds, pigweed (Amaranthus sp.) is planted in the same pot with either three corn or five wheat seeds, and sprayed simultaneously with the cereal test plants. The less than 3-inch tall plants grown under growth lights (12-h light/12-h dark) at 28° C. are sprayed with thaxtomin A solutions derived from a liquid culture of S. acidiscabies containing 0.5, and 1.0 mg thaxtomin A per mL of solvent (4% ethanol and 0.2% non-ionic surfactant). A solution of 4% ethanol +0.2% non-ionic surfactant without thaxtomin A is used as a control treatment. Each treatment is conducted in three replicates. Treated plants are kept at 28° C. under growth lights and observed at three time points—7, 14 and 21 days after treatment—for visual symptoms of phytotoxicity on corn and wheat and % control of pigweed."}, "pigweed (Amaranthus sp.)": {"test_system": "pigweed (Amaranthus sp.)", "experiment": "Pot study, % control of pigweed (Example 2)", "settings": "1.0 mg/mL", "description": "as §2"}, "[5]": {"test_system": "wheat (Triticum aestivum var. PR1404)", "experiment": "Pot study, phytotoxicity on wheat (Example 2)", "settings": "0.5 and 1.0 mg/mL, 7, 14 and 21 days after treatment", "description": "as §2"}, "[6]": {"test_system": "sprangletop: Leptochloa uninervia", "experiment": "Greenhouse study thaxtomin A / sarmentine (Example 9)", "settings": "Thaxtomin A 0.2 mg/mL; 25 days after treatment", "description": "(§3) A strain of S. acidiscabies was grown in oat bran broth for 5 days (25° C., 200 rpm). The whole cell broth was extracted using XAD resin, and the dried crude extract was resuspended in 4% ethanol and 0.2% non-ionic surfactant at a concentration of 10 mg/mL. The diluted extracts containing 0.2 and 0.4 mg thaxtomin A per mL were tested on three weed species (redstem; Ammania spp., smallflower umbrella sedge; Cyperus difformis and sprangletop: Leptochloa uninervia). Other treatments included sarmentine at 2.5 and 5.0 mg/mL, and a combination treatment containing 0.2 mg thaxtomin A and 2.5 mg sarmentine per mL. Each treatment was applied in three replicates. Treated plants were kept in a greenhouse under 12 h light/12 h dark conditions."}, "redstem; Ammania spp.": {"test_system": "redstem; Ammania spp.", "experiment": "Greenhouse study thaxtomin A / sarmentine (Example 9)", "settings": "25 days after treatment", "description": "as §3"}, "[7]": {"test_system": "smallflower umbrella sedge; Cyperus difformis", "experiment": "Greenhouse study thaxtomin A / sarmentine (Example 9)", "settings": "Thaxtomin A 0.2 mg/mL; 25 days after treatment", "description": "as §3"}, "grass species": {"test_system": "grass species", "experiment": "Greenhouse test on grass species (Example 4)", "settings": "0.5 or 1.0 mg/mL thaxtomin A", "description": "A strain of S. acidiscabies (ATCC-49003) is grown in oat bran broth for 5 days (25° C., 200 rpm). The whole cell broth with thaxtomin A is extracted using XAD resin. The dried crude extract was resuspended in 4% ethanol and 0.02% non-ionic surfactant at a concentration of 10 mg/mL, and the solutions with two different concentrations of thaxtomin A (0.5 and 1.0 mg/mL) are tested the following broadleaf weed species:\nand on the following grass weed species:\nAll plant species are tested in 4″×4″ plastic pots in three replicates. The untreated control plants are sprayed with the carrier solution (4% Ethanol, 0.02% glycosperse) and the positive control plants with Roundup at a rate corresponding to 1 fl. oz/acre. Treated plants are kept in a greenhouse under 12 h light/12 h dark conditions."}},
  "data": [
    {"smiles": "CN1C(=O)[C@](O)(Cc2cccc(O)c2)N(C)C(=O)[C@@H]1Cc1c[nH]c2cccc([N+](=O)[O-])c12", "note": "[thaxtomin A]", "values": [
      {"measurement": "# of sprangletop", "setting": "sprangletop; listed as Thaxtomin A", "result": 76.0, "unit": "a"},
      {"measurement": "# of sprangletop", "setting": "sprangletop; listed as thaxtomin", "result": "no effect"},
      {"measurement": "# of sedge", "setting": "[1]; listed as Thaxtomin A", "result": 1.0, "unit": "a"},
      {"measurement": "# of sedge", "setting": "[1]; listed as thaxtomin", "result": "significantly reduced the number of sedges"},
      {"measurement": "# of redstem", "setting": "redstem", "result": 0.5, "unit": "b"},
      {"measurement": "% Control MBI-005", "setting": "ragweed; MBI-005 0.125 mg/mL (bispyribac-sodium line)", "result": 23.3, "unit": "%"},
      {"measurement": "% Control MBI-005", "setting": "ragweed; MBI-005 0.125 mg/mL (glufosinate line)", "result": 37.5, "unit": "%"},
      {"measurement": "% Control MBI-005", "setting": "ragweed; MBI-005 0.125 mg/mL (glyphosate line)", "result": 6.7, "unit": "%"},
      {"measurement": "phytotoxicity", "setting": "[2]", "result": "no phytotoxicity is observed"},
      {"measurement": "% Control MBI-005", "setting": "[3]; MBI-005 0.5% of the label rate (Bispyribac-sodium line)", "result": 3.3, "unit": "%"},
      {"measurement": "% Control MBI-005", "setting": "[3]; MBI-005 2.0% of the label rate (Penoxsulam line)", "result": 20.0, "unit": "%"},
      {"measurement": "% Control MBI-005", "setting": "[3]; MBI-005 2.0% of the label rate (Propanil line)", "result": 20.0, "unit": "%"},
      {"measurement": "% Control MBI-005", "setting": "[3]; MBI-005 2.0% of the label rate (Thiobencarb line)", "result": 20.0, "unit": "%"},
      {"measurement": "symptoms of phytotoxicity", "setting": "[4]", "result": "no symptoms of phytotoxicity are observed"},
      {"measurement": "control of pigweed", "setting": "pigweed (Amaranthus sp.)", "result": "complete control"},
      {"measurement": "symptoms of phytotoxicity", "setting": "[5]", "result": "no symptoms of phytotoxicity are observed"},
      {"measurement": "Control of sprangletop (%)", "setting": "[6]", "result": 8.3, "unit": "ab %"},
      {"measurement": "Control of redstem (%)", "setting": "redstem; Ammania spp.; Thaxtomin A 0.2 mg/mL", "result": 5.0, "unit": "b %"},
      {"measurement": "Control of redstem (%)", "setting": "redstem; Ammania spp.; Thaxtomin A 0.4 mg/mL, *stunted", "result": 11.7, "unit": "c* %"},
      {"measurement": "Control of sedge (%)", "setting": "[7]", "result": 48.3, "unit": "b %"},
      {"measurement": "adverse effects on grass species", "setting": "grass species", "result": "no adverse effects are observed"}
    ]}
  ]
}
